In brackets after ≈: the same amount, converted by molar mass. Read-outs that look alike come from different tables or passages of the source.
What was measured:
Assay in all cases: MIC, agar dilution method, pH 8.0
Type in all cases: cell-based
[1] = system: Staphylococcus aureus KY4279 ATCC6538P
Description: (§1) Measurement was carried out according to the agar dilution method, using a medium of pH 8.0, or the Japanese Antibiotic Medicament Standard, using a medium of pH 7.2 Units are in mcg/ml.
S.A.: Staphylococcus aureus KY4279 ATCC6538P

[2] = system: Bacillus subtilis KY4273
Description: as §1
B.S.: Bacillus subtilis KY4273

[3] = system: Eschericia coli KY4271 ATCC26; conditions: Escherichia coli
Description: as §1
E.C.: Eschericia coli KY4271 ATCC26

[4] = system: Proteus vulgaris KY4277 ATCC6897
Description: as §1

[5] = system: Shigella sonnei KY4281 ATCC9290; conditions: ATCC9290; pH 8.0; Shigella sonnei KY4281; read-out: Minimum inhibition concentration (MIC), SS
Description: as §1

[6] = system: Salmonella typhosa KY4278 ATCC9992; conditions: Salmonella enterica, pH 8, read-out: Minimum inhibition concentration (MIC), ST
Description: as §1
S.T.: Salmonella typhosa KY4278 ATCC9992

[7] = system: Klebsiella pneumoniae KY4275 ATCC10031; conditions: ATCC10031; pH 8.0; Klebsiella pneumoniae KY4275; read-out: Minimum inhibition concentration (MIC), KP
Description: as §1
K.P.: Klebsiella pneumoniae KY4275 ATCC10031.

[8] = pH 8.0, Staphylococcus aureus KY4279, read-out: Minimum inhibition concentration (MIC), SA
[9] = pH 8.0, Bacillus subtilis KY4273, read-out: Minimum inhibition concentration (MIC), BS
[10] = ATCC26, pH 8.0, E. coli KY4271, read-out: Minimum inhibition concentration (MIC), EC
[11] = ATCC6897, pH 8.0, Proteus vulgaris KY4277, read-out: Minimum inhibition concentration (MIC), PV
[12] = Bacillus subtilis, KY4273, pH 8, read-out: Minimum inhibition concentration (MIC), BS
[13] = ATCC26, pH 8, read-out: Minimum inhibition concentration (MIC), EC
[14] = Proteus vulgaris, ATCC6897, pH 8, read-out: Minimum inhibition concentration (MIC), PV

SMILES: CO[C@H]1[C@@H](O)[C@H](N)[C@@H](O[C@H]2O[C@H]([C@H](C)N)CC[C@H]2N)[C@H](O)[C@@H]1N(C)C(C)=O [Compound 5, 4-N-acetylfortimicin B]
- MIC [1, 8]: 12.5 µg/mL (≈ 32 µM)
- MIC [2, 9]: 50 µg/mL (≈ 128 µM)
- MIC [3, 10]: 50 µg/mL (≈ 128 µM)
- MIC [4, 11]: 100 µg/mL (≈ 256 µM)
- MIC [5]: 50 µg/mL (≈ 128 µM)
- MIC [6]: 50 µg/mL (≈ 128 µM)
- MIC [7]: > 200 µg/mL

SMILES: CCC(=O)N(C)[C@H]1[C@@H](O)[C@H](O[C@H]2O[C@H]([C@H](C)N)CC[C@H]2N)[C@@H](N)[C@H](O)[C@@H]1OC [Compound 6, 4-N-propionylfortimicin B]
- MIC [1, 8]: 12.5 µg/mL (≈ 30.9 µM)
- MIC [2, 9]: 50 µg/mL (≈ 124 µM)
- MIC [3, 10]: 50 µg/mL (≈ 124 µM)
- MIC [4, 11]: 200 µg/mL (≈ 494 µM)
- MIC [5]: > 200 µg/mL
- MIC [6]: 50 µg/mL (≈ 124 µM)
- MIC [7]: > 200 µg/mL

SMILES: CCCC(=O)N(C)[C@H]1[C@@H](O)[C@H](O[C@H]2O[C@H]([C@H](C)N)CC[C@H]2N)[C@@H](N)[C@H](O)[C@@H]1OC [Compound 7, 4-N-(n-butyryl)fortimicin B]
- MIC [1, 8]: 6.25 µg/mL (≈ 14.9 µM)
- MIC [2, 12]: 12.5 µg/mL (≈ 29.9 µM)
- MIC [3, 10]: 6.25 µg/mL (≈ 14.9 µM)
- MIC [4, 11]: 100 µg/mL (≈ 239 µM)
- MIC [5]: 50 µg/mL (≈ 119 µM)
- MIC [6]: 12.5 µg/mL (≈ 29.9 µM)
- MIC [7]: 25 µg/mL (≈ 59.7 µM)

SMILES: CCCCC(=O)N(C)[C@H]1[C@@H](O)[C@H](O[C@H]2O[C@H]([C@H](C)N)CC[C@H]2N)[C@@H](N)[C@H](O)[C@@H]1OC [Compound 8, 4-N-(n-valeryl)fortimicin B]
- MIC [1, 8]: 100 µg/mL (≈ 231 µM)
- MIC [2, 9]: 25 µg/mL (≈ 57.8 µM)
- MIC [3, 10]: > 100 µg/mL
- MIC [4, 11]: > 200 µg/mL
- MIC [5]: > 200 µg/mL
- MIC [6]: > 200 µg/mL
- MIC [7]: > 200 µg/mL

SMILES: CO[C@H]1[C@@H](O)[C@H](N)[C@@H](O[C@H]2O[C@H]([C@H](C)N)CC[C@H]2N)[C@H](O)[C@@H]1N(C)C(=O)CCN [Compound 9, 4-N-(β-alanyl)fortimicin B]
- MIC [1, 8]: 0.08 µg/mL (≈ 0.191 µM)
- MIC [2, 9]: 0.08 µg/mL (≈ 0.191 µM)
- MIC [3, 10]: 0.63 µg/mL (≈ 1.5 µM)
- MIC [4, 11]: 0.63 µg/mL (≈ 1.5 µM)
- MIC [5]: 1.25 µg/mL (≈ 2.98 µM)
- MIC [6]: 0.32 µg/mL (≈ 0.763 µM)
- MIC [7]: 0.32 µg/mL (≈ 0.763 µM)

SMILES: CO[C@H]1[C@@H](O)[C@H](N)[C@@H](O[C@H]2O[C@H]([C@H](C)N)CC[C@H]2N)[C@H](O)[C@@H]1N(C)C(=O)CCCN [Compound 10, 4-N-(γ-amino-n-butyryl)fortimicin B]
- MIC [1, 8]: 0.32 µg/mL (≈ 0.738 µM)
- MIC [2, 9]: 0.16 µg/mL (≈ 0.369 µM)
- MIC [3, 10]: 1.25 µg/mL (≈ 2.88 µM)
- MIC [4, 11]: 1.25 µg/mL (≈ 2.88 µM)
- MIC [5]: 2.5 µg/mL (≈ 5.77 µM)
- MIC [6]: 0.63 µg/mL (≈ 1.45 µM)
- MIC [7]: 2.5 µg/mL (≈ 5.77 µM)

SMILES: CO[C@H]1[C@@H](O)[C@H](N)[C@@H](O[C@H]2O[C@H]([C@H](C)N)CC[C@H]2N)[C@H](O)[C@@H]1N(C)C(=O)CCCCCN [Compound 12, 4-N-(ε-amino-n-caproyl)fortimicin B]
- MIC [1, 8]: > 20 µg/mL
- MIC [2, 9]: > 20 µg/mL
- MIC [3, 10]: > 20 µg/mL
- MIC [4, 11]: > 20 µg/mL
- MIC [5]: > 20 µg/mL
- MIC [6]: > 20 µg/mL
- MIC [7]: > 20 µg/mL

SMILES: CO[C@H]1[C@@H](O)[C@H](N)[C@@H](O[C@H]2O[C@H]([C@H](C)N)CC[C@H]2N)[C@H](O)[C@@H]1N(C)C(=O)CNC(=O)CN [Compound 13, 4-N-glycylglycylfortimicin B]
- MIC [1, 8]: 0.32 µg/mL (≈ 0.692 µM)
- MIC [2, 9]: 0.32 µg/mL (≈ 0.692 µM)
- MIC [3, 13]: 1.25 µg/mL (≈ 2.7 µM)
- MIC [4, 11]: 2.5 µg/mL (≈ 5.4 µM)
- MIC [5]: 5 µg/mL (≈ 10.8 µM)
- MIC [6]: 1.25 µg/mL (≈ 2.7 µM)
- MIC [7]: 2.5 µg/mL (≈ 5.4 µM)

SMILES: CCN(C)[C@H]1[C@@H](O)[C@H](O[C@H]2O[C@H]([C@H](C)N)CC[C@H]2N)[C@@H](N)[C@H](O)[C@@H]1OC [Compound 16, 4-N-ethylfortimicin B]
- MIC [1, 8]: 1.56 µg/mL (≈ 4.14 µM)
- MIC [2, 12]: 3.13 µg/mL (≈ 8.31 µM)
- MIC [3, 13]: 3.13 µg/mL (≈ 8.31 µM)
- MIC [4, 14]: 6.25 µg/mL (≈ 16.6 µM)
- MIC [5]: 6.25 µg/mL (≈ 16.6 µM)
- MIC [6]: 3.13 µg/mL (≈ 8.31 µM)
- MIC [7]: 50 µg/mL (≈ 133 µM)

SMILES: CCCN(C)[C@H]1[C@@H](O)[C@H](O[C@H]2O[C@H]([C@H](C)N)CC[C@H]2N)[C@@H](N)[C@H](O)[C@@H]1OC [Compound 17, 4-N-(n-propyl)fortimicin B]
- MIC [1, 8]: 3.13 µg/mL (≈ 8.01 µM)
- MIC [2, 12]: 12.5 µg/mL (≈ 32 µM)
- MIC [3, 13]: 6.25 µg/mL (≈ 16 µM)
- MIC [4, 14]: 12.5 µg/mL (≈ 32 µM)
- MIC [5]: 12.5 µg/mL (≈ 32 µM)
- MIC [6]: 6.25 µg/mL (≈ 16 µM)
- MIC [7]: 100 µg/mL (≈ 256 µM)

SMILES: CCCCN(C)[C@H]1[C@@H](O)[C@H](O[C@H]2O[C@H]([C@H](C)N)CC[C@H]2N)[C@@H](N)[C@H](O)[C@@H]1OC [Compound 18, 4-N-(n-butyl)fortimicin B]
- MIC ([1]; Staphylococcus aureus, pH 8, read-out: Minimum inhibition concentration (MIC), SA): 12.5 µg/mL (≈ 30.9 µM)
- MIC [2, 9]: 25 µg/mL (≈ 61.8 µM)
- MIC [3, 10]: 25 µg/mL (≈ 61.8 µM)
- MIC [4, 11]: 100 µg/mL (≈ 247 µM)
- MIC [5]: 25 µg/mL (≈ 61.8 µM)
- MIC [6]: 12.5 µg/mL (≈ 30.9 µM)
- MIC [7]: > 200 µg/mL

Source: patent publication US4220755A, “Fortimicin B derivatives and process for production thereof” (Abbott Laboratories, priority 1976, dated 1980)
